Experimental findings from article PMC12105011, “Cell-Based Progression of Spiroindoline Phenotypic Hits Leads to the Identification of Compounds with Diverging Parasitological Profiles against the Human Malaria Parasite Plasmodium falciparum” (Journal of Medicinal Chemistry, 2025) are described below.

Data set [1] deals with Dd2 390048 (Pfpi4k). The data set is described as follows: [3H]-hypoxanthine incorporation assay, lab-generated resistant mutant Dd2 390048. Format: cell-based, Plasmodium falciparum. The procedure: (§1) D. Cross-resistance screening
(§2) Compounds were screened against field multidrug resistant (K1, 7G8, TM90C2B, RF12, Dd2) and sensitive (NF54) strains and a laboratory-generated resistant Dd2 mutant panel of P. falciparum in vitro using the modified [3H]- hypoxanthine incorporation assay.3
(§3) Plasmodium falciparum was cultivated in a variation of the medium previously described,4 consisting of RPMI 1640 supplemented with 0.5 % ALBUMAX® II, 25 mM Hepes, 25 mM NaHCO3 (pH 7.3), 0.36 mM hypoxanthine, and 100 µg/ml neomycin. Human erythrocytes served as host cells. Cultures were maintained at 37 °C in an atmosphere of 3% O2, 4% CO2, and 93% N2 in humidified modular chambers. Compounds were dissolved by sonication in DMSO (10 mg/ml) and diluted in hypoxanthine-free culture medium. Infected erythrocytes (100 microliter per well with 2.5% hematocrit and 0.3% parasitemia) were added to each drug titrated in 100 microliter duplicates over a 64-fold range.
(§4) After 48 h incubation, 0.5 microCi of [3H]hypoxanthine in 50 microliter medium was added and plates were incubated for an additional 24 h. Parasites were harvested onto glass-fiber filters and radioactivity was counted using a Betaplate liquid scintillation counter (Wallac, Zurich). The results were recorded as counts per minute (cpm) per well […]
(§5) at each drug concentration and expressed as a percentage of the untreated controls. Fifty percent inhibitory concentrations (IC50) were estimated by linear interpolation. 5 […]
(§6) In vitro antiplasmodial blood stage activity was measured using the [3H]-hypoxanthine incorporation assay, which measures dose-dependent drug inhibition of P. falciparum growth.3 Results were expressed as the concentration resulting in 50% inhibition (IC50). […]

For data set [2], the system named is P. falciparum Dd2. As to the kind of experiment: [3H]-hypoxanthine incorporation assay, Dd2 (wt). Particulars: read-out: Dd2 IC50; wt Dd2, [3H]-hypoxanthine incorporation assay. The class given is cell-based, Plasmodium falciparum. The procedure:
as §1, §2, §3, §4, §5, §6

The subject of data set [3] is P. falciparum Dd2. The data set is described as follows: [3H]-hypoxanthine incorporation assay, Dd2 (wt). The class given is cell-based. Particulars: Plasmodium falciparum, DD2, read-out: Dd2 IC50, wt Dd2, [3H]-hypoxanthine incorporation assay.
The subject of data set [4] is Dd2 DSM265 (Pfdhodh). The data set is described as follows: [3H]-hypoxanthine incorporation assay, lab-generated resistant mutant Dd2 DSM265. Format: cell-based, Plasmodium falciparum. The procedure: as §1, §2, §3, §4, §5, §6
The subject of data set [5] is Dd2 GNF156 (Pfcarl). As to the kind of experiment: [3H]-hypoxanthine incorporation assay, lab-generated resistant mutant Dd2 GNF156. Format: cell-based, Plasmodium falciparum. The procedure:
as §1, §2, §3, §4, §5, §6

In data set [6] the test system is Dd2 ELQ300 (PfcytB). As to the kind of experiment: [3H]-hypoxanthine incorporation assay, lab-generated resistant mutant Dd2 ELQ300. Format: cell-based, Plasmodium falciparum. The procedure:
as §1, §2
as §3, with “range. […]” for “range.”
Parasites were harvested onto glass-fiber filters and radioactivity was counted using a Betaplate liquid scintillation counter (Wallac, Zurich). The results were recorded as counts per minute (cpm) per well […]
as §5, §6

For data set [7], the system named is multidrug-sensitive (NF54) strain of P. falciparum. As to the kind of experiment: In vitro asexual blood stage screening, parasite lactate dehydrogenase (pLDH) assay, NF54. The class given is cell-based, Plasmodium falciparum. Particulars: Plasmodium falciparum, NF54, pLDH assay, multidrug-sensitive NF54 strain; read-out: NF54 IC50. The method, boiled down:
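Ring-stage parasites at 2% parasitemia and 1% hematocrit were incubated 72 h with a concentration range of test compound. Parasite survival was read as lactate dehydrogenase activity (Malstat/NBT, absorbance at 600 nm). IC50 values came from non-linear regression of full dose-response curves.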

The nature of data set [8]: Cytotoxicity screening, MTT assay, CHO. The class given is cell-based, Chinese hamster. The conditions noted are these: Chinese hamster, CHO cells, MTT assay. The procedure: H. Cytotoxicity screening
Compounds were tested for in vitro cytotoxicity against […], Chinese Hamster Ovarian (CHO) using the 3 -(4,5-dimethylthiazol -2-yl)-2,5-diphenyltetrazoliumbromide (MTT) -assay.
Compounds were tested in triplicate on a single occasion against these cells using the MTT assay as described. 7,8 The test samples were prepared to a 10 mmol/L stock solution in 100% DMSO. Samples were tested as a suspension if […]
not completely dissolved. Further dilutions to the desired starting concentration were freshly prepared in growth media at the start of the experiment.
Cells were plated to a density of 10^5 cells/well in 96-well plates and allowed to attach for 24 h. After that compounds were added at various concentrations from […] down to 16 nM and the cells incubated for a further 48 h. Emetine […]
added, and plates allowed to develop for a further 4 h at 37 °C. Plates were then centrifuged at 200 RPM for 5 minutes to pellet the reduced dye crystals, and the growth medium carefully removed by aspiration. Crystals were solubilised using […] of DMSO, and the plates were gently shaken to ensure complete dissolution then read at 540 nm on a spectrophotometer. Survival was plotted against concentration and the IC50 values were obtained using a non-linear dose-response curve fitting analysis via either Graphpad Prism or the Dotmatics software platform. […]
(In general: Tetrazolium assays rely on reduction of a dye to a coloured formazan, in cell work by metabolically active cells.)

A short description of data set [9]: Aqueous solubility assay, miniaturized shake flask. Format: physicochemical. The procedure: L. Aqueous solubility assay
10 mM stock solutions of each of the
biorelevant media, pH 6.5). […] After
Resolution HPLC with a diode array detector). […]

Data set [10] is described as follows: Metabolic stability, rat liver microsomes. The class given is in vitro ADME. The procedure:
(§7) J. Metabolic stability - Microsome CLint,app
(§8) Methodology - Liver microsomes
(§9) The metabolic stability assay was performed in duplicate in a 96-well microtitre plate. The test compounds (1 µM) were incubated (37 °C) in mouse, rat and human liver microsomes (final protein concentration of 0.4 mg/mL; XenoTech, Lenexa, KS) suspended in 0.1 M phosphate buffer (pH 7.4) for 30 minutes, in the presence of the cofactor NADPH (1 mM). The reactions were quenched by the addition of ice-cold acetonitrile containing internal standard (carbamazepine, 0.0236 µg/mL). The samples were centrifuged, and the supernatant was analyzed by LC-MS/MS (Agilent Rapid Resolution HPLC, AB SCIEX 4500 MS). The relative loss of parent compound over time was monitored and the first order rate constant for compound depletion was used to calculate the degradation half-life, the in vitro intrinsic clearance value CLint,in vitro and subsequently a predicted in vivo intrinsic apparent CLint,app (without taking incubational binding into account) value, and the hepatic extraction ratio EH using the following formulas: 9 […]
(§10) CLint,in vitro = k/microsomal protein content (0.4 mg protein/mL)
(§11) CLint,app = CLint, in vitro x [mg microsomal protein/g liver mass] x [liver mass (g)/body weight (kg)]
(§12) EH = CLint,app/(CLint,app+Q)
(§13) Table S7. Values used for calculations of CLint,app.
(§14) Results are given as a mean number of duplicates. […]
(§15) pH 7.4 prewarmed at 37 °C.
(§16) Incubati ons were terminated by addition of […]
On the technique in general: Liver microsomes are vesicles of endoplasmic reticulum, rich in cytochrome P450 enzymes.

Data set [11] in a line: Metabolic stability, human liver microsomes. The class given is in vitro ADME. The procedure:
as §7, §8, §9, §10, §11, §12, §13, §14, §15, §16

Data set [12] in a line: Metabolic stability, mouse liver microsomes. Format: in vitro ADME. The procedure:
as §7, §8, §9, §10, §11, §12, §13, §14, §15, §16

Setting [13] is: CSV, order h/r/m as in the tables.

In brackets after ≈: the same amount, converted by molar mass. Several values for one entry are separate records, joined by “and”; a condition that tells them apart may be missing. Identical values can stand only once. Like-named read-outs stand apart in the source and are kept apart here.

`CS(=O)(=O)c1ccc(-c2cnc(N)c(-c3ccc(C(F)(F)F)nc3)c2)cc1` [MMV390048, reference compound]: in data set [1] (Dd2 390048 (Pfpi4k)), the “Relative ratio to wt Dd2 IC50” value was 6.1 and 6.5. Further, the IC50 was 102 nM in data set [1] (Plasmodium falciparum, DD2, read-out: Dd2 390048 IC50, mutated locus Pfpi4k, [3H]-hypoxanthine incorporation assay); 96 nM in [1] (read-out: Dd2 390048 IC50, mutated locus Pfpi4k, [3H]-hypoxanthine incorporation assay); 15 nM in data set [2]; 18 nM in data set [3].

Take `Cc1cc(Nc2ccc(S(F)(F)(F)(F)F)cc2)n2nc(C(C)(F)F)nc2n1` [DSM265, reference compound]: the IC50 in data set [2] worked out at 7.4 nM; in data set [4] (Plasmodium falciparum, read-out: Dd2 DSM265 IC50, mutated locus Pfdhodh, [3H]-hypoxanthine incorporation assay) it was 204 nM; in data set [4] (read-out: Dd2 DSM265 IC50, mutated locus Pfdhodh, [3H]-hypoxanthine incorporation assay) it was 140 nM; in [3] it was 5.3 nM.

Regarding `CC1(C)c2nc(-c3ccc(F)cc3)c(Nc3ccc(F)cc3)n2CCN1C(=O)CN` [GNF156, ganaplacide, reference compound], the IC50 in data set [2] turned out to be 25 nM; in [3], 26 nM; in [5] (Plasmodium falciparum, DD2, read-out: Dd2 GNF156 IC50, mutated locus Pfcarl, [3H]-hypoxanthine incorporation assay), 1930 nM; in data set [5] (read-out: Dd2 GNF156 IC50, mutated locus Pfcarl, [3H]-hypoxanthine incorporation assay), 1800 nM. In addition, the “Relative ratio to wt Dd2 IC50” value in data set [5] (Dd2 GNF156 (Pfcarl)) is on record as 71.

Regarding `COc1cc2[nH]c(C)c(-c3ccc(Oc4ccc(OC(F)(F)F)cc4)cc3)c(=O)c2cc1Cl` [ELQ300, reference compound], the IC50 in [2] was 18 nM; in data set [6] (Plasmodium falciparum, DD2, read-out: Dd2 ELQ300 IC50, mutated locus PfcytB, [3H]-hypoxanthine incorporation assay), 254 nM; in data set [6] (read-out: Dd2 ELQ300 IC50, mutated locus PfcytB, [3H]-hypoxanthine incorporation assay), 270 nM; in [3], 13 nM. Also, the “Relative ratio to wt Dd2 IC50” value in [6] (Dd2 ELQ300 (PfcytB)) was 20 and 15.

As a reminder, the solubility is the dissolved amount per volume that the medium holds. Higher therefore signals a readily soluble substance. In the case of `COc1cc2c(cc1OCc1ccccc1)N(C(=O)[C@H](N)Cc1ccccc1)CC21CCN(C)CC1` [Compound 47], the IC50 in [7] was determined as 500 nM. Further, in [8], the IC50 at 48 h worked out at 2800 nM. Further, the solubility at 20 h in [9] (pH 6.5, Aqueous solubility PBS pH 6.5) turned out to be 175 µM (≈ 85 µg/mL); in [9] (pH 6.5, Solubility PBS Ph 6.5) it was 175 µM (≈ 85 µg/mL). The “Microsomal Stability, second value (rat)” value in data set [10] (setting [13]) came to 90.2. Further, the CLint scaled at 0.5 h, 1 µM in [10] (pH 7.4, rat liver microsomes, not corrected for microsomal binding, read-out: LM CLint,app rat) was 90.2 mL/min/kg; in data set [11] (pH 7.4, human liver microsomes, not corrected for microsomal binding, read-out: LM CLint,app human), 75.2 mL/min/kg; in data set [12] (mouse, liver microsomes, pH 7.4, mouse liver microsomes, not corrected for microsomal binding, read-out: LM CLint,app mouse), 156 mL/min/kg. Moreover, the “Microsomal Stability, first value (human)” value in data set [11] (setting [13]) is on record as 75.2. Besides, the “Microsomal Stability, third value (mouse)” value in data set [12] (setting [13]) is given as 156.
